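Following 48 hours of exposure in 96-well plates, responses at five concentrations were used to interpolate endpoints linearly. The concentration for 50% growth inhibition is given as GI50.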 Calls of active or inactive are those of the source. No stated cut-off is given here; in the data, active = GI50 up to about 1.1 µM and inactive = higher.
Key:
Assay in all cases: NCI tumour cell line growth inhibition, 48 h
ACHN = system: ACHN
CCRF-CEM = system: CCRF-CEM
COLO 205 = system: COLO 205
HCT-116 = system: HCT-116
HL-60 = system: HL-60
Hs-578T = system: Hs-578T
IGROV-1 = system: IGROV-1
K562 = system: K562
KM12 = system: KM12
MDA-MB-231 = system: MDA-MB-231
MDA-N = system: MDA-N
SF-539 = system: SF-539
SNB-75 = system: SNB-75
UO-31 = system: UO-31
HCC 2998 = system: HCC 2998
LOX IMVI = system: LOX IMVI
Malme-3M = system: Malme-3M
SK-OV-3 = system: SK-OV-3
SW-620 = system: SW-620
U-251 = system: U-251

Measured: GI50

CCOC(=O)c1c(NC(=O)c2cccs2)sc2c1CCC2
inactive: ACHN > 100 µM | CCRF-CEM > 100 µM | COLO 205 > 100 µM | HCT-116 > 100 µM | HL-60 > 100 µM | Hs-578T > 100 µM | IGROV-1 > 100 µM | K562 > 100 µM | KM12 > 100 µM | MDA-MB-231 > 100 µM | MDA-N > 100 µM | SF-539 > 100 µM | SNB-75 1.22 µM | UO-31 > 100 µM

O=C1CCCC1C(=O)Nc1ccc2ccccc2c1 (centres undefined)
inactive: ACHN > 100 µM | CCRF-CEM 57 µM | COLO 205 > 100 µM | HCC 2998 > 100 µM | HCT-116 > 100 µM | HL-60 35.6 µM | IGROV-1 > 100 µM | K562 53.5 µM | KM12 84.9 µM | LOX IMVI > 100 µM | MDA-MB-231 > 100 µM | MDA-N > 100 µM | Malme-3M > 100 µM | SK-OV-3 > 100 µM | SNB-75 29.4 µM | SW-620 > 100 µM | U-251 > 100 µM | UO-31 > 100 µM

N=c1oc2ccc([N+](=O)[O-])cc2cc1C(=O)NCc1ccccc1
inactive: ACHN 16.7 µM | CCRF-CEM 27 µM | COLO 205 20.6 µM | HCC 2998 32.1 µM | HCT-116 16.3 µM | HL-60 27.2 µM | Hs-578T 18.7 µM | IGROV-1 12.3 µM | K562 40 µM | KM12 14.3 µM | LOX IMVI 17.7 µM | MDA-MB-231 22 µM | Malme-3M 13.5 µM | SF-539 17.7 µM | SK-OV-3 39.2 µM | SNB-75 11.5 µM | SW-620 20 µM | U-251 28 µM | UO-31 18 µM

O=C(O)CC(CC(=O)O)n1cccc1
inactive: ACHN > 100 µM | CCRF-CEM > 100 µM | COLO 205 > 100 µM | HCT-116 > 100 µM | HL-60 > 100 µM | IGROV-1 > 100 µM | K562 > 100 µM | KM12 > 100 µM | LOX IMVI > 100 µM | MDA-MB-231 > 100 µM | MDA-N > 100 µM | SF-539 > 100 µM | SK-OV-3 > 100 µM | SW-620 > 100 µM | U-251 > 100 µM | UO-31 > 100 µM

O=C(O)C(C(C(=O)O)P(=O)(O)O)P(=O)(O)O (centres undefined)
inactive: ACHN > 100 µM | CCRF-CEM > 100 µM | COLO 205 > 100 µM | HCC 2998 > 100 µM | HCT-116 > 100 µM | HL-60 > 100 µM | Hs-578T > 100 µM | IGROV-1 > 100 µM | K562 > 100 µM | KM12 > 100 µM | LOX IMVI > 100 µM | MDA-N > 100 µM | Malme-3M > 100 µM | SF-539 > 100 µM | SK-OV-3 > 100 µM | SNB-75 > 100 µM | SW-620 > 100 µM | U-251 > 100 µM | UO-31 > 100 µM

O=C(O)c1c2c(cc3c1CC1(Cc4ccccc4C1=O)C3)CCC2 (centres undefined)
inactive: ACHN 57 µM | CCRF-CEM 9.91 µM | COLO 205 17.4 µM | HCC 2998 3.33 µM | HCT-116 21.6 µM | HL-60 3.17 µM | Hs-578T 34 µM | IGROV-1 > 61.5 µM | K562 5.79 µM | KM12 14.4 µM | LOX IMVI 23.8 µM | MDA-MB-231 34.6 µM | Malme-3M 16.5 µM | SF-539 29.7 µM | SK-OV-3 47.4 µM | SNB-75 26.5 µM | SW-620 30.1 µM | U-251 29 µM | UO-31 38 µM

CNC1=CC(=O)C2=C(C1=O)[C@H]1CC[C@]3(C)C(=O)CC[C@H]3[C@@H]1CC2
inactive: ACHN 21.6 µM | CCRF-CEM 9.18 µM | COLO 205 13.7 µM | HCC 2998 16 µM | HCT-116 16.9 µM | IGROV-1 5.43 µM | K562 12.6 µM | KM12 7.43 µM | LOX IMVI 4.54 µM | MDA-MB-231 24.5 µM | MDA-N 8.17 µM | SF-539 18.4 µM | SK-OV-3 43.6 µM | SNB-75 14.3 µM | SW-620 22.9 µM | U-251 21.8 µM | UO-31 18.8 µM

CN(C)c1ccc(/C=C(\NC(=O)c2ccccc2)C(=O)NC(CC(=O)O)C(=O)O)cc1 (centres undefined)
inactive: ACHN > 100 µM | CCRF-CEM > 100 µM | COLO 205 > 100 µM | HCC 2998 > 100 µM | HCT-116 > 100 µM | HL-60 > 100 µM | Hs-578T 49.7 µM | IGROV-1 > 100 µM | K562 18.2 µM | KM12 39.4 µM | LOX IMVI 86.3 µM | MDA-MB-231 > 100 µM | SF-539 > 100 µM | SK-OV-3 > 100 µM | SNB-75 1.99 µM | SW-620 > 100 µM | U-251 > 100 µM | UO-31 > 100 µM

Cc1c2ccccc2c(/C=N/NC(=O)CSCC(=O)N/N=C/c2c3ccccc3c(C)c3ccccc23)c2ccccc12
inactive: ACHN > 47.8 µM | CCRF-CEM 34.2 µM | HCC 2998 18.3 µM | HCT-116 55.6 µM | HL-60 > 68.7 µM | Hs-578T 46 µM | IGROV-1 > 100 µM | K562 37.9 µM | KM12 > 56.4 µM | LOX IMVI > 57.4 µM | MDA-MB-231 31.2 µM | Malme-3M 37 µM | SF-539 18.1 µM | SK-OV-3 > 100 µM | SNB-75 > 27.4 µM | SW-620 > 57.4 µM | U-251 29.6 µM | UO-31 > 84.1 µM

CC1(C)OC([C@H](O)CO)C([C@H]2NCCS2)O1 (some centres undefined)
inactive: ACHN > 100 µM | CCRF-CEM > 100 µM | COLO 205 > 100 µM | HCC 2998 > 100 µM | HCT-116 > 100 µM | HL-60 > 100 µM | Hs-578T > 100 µM | IGROV-1 > 100 µM | K562 > 100 µM | KM12 > 100 µM | LOX IMVI > 100 µM | MDA-MB-231 > 100 µM | Malme-3M > 100 µM | SK-OV-3 > 100 µM | SNB-75 > 100 µM | SW-620 > 100 µM | U-251 > 100 µM | UO-31 > 100 µM

CCOC(=O)c1ccc(NCc2ccc3oc(=O)c(-c4ccccc4)nc3c2)cc1
inactive: ACHN 26.6 µM | CCRF-CEM 3.46 µM | COLO 205 23.2 µM | HCC 2998 > 100 µM | HCT-116 29.8 µM | HL-60 3.94 µM | IGROV-1 67 µM | K562 22.5 µM | KM12 > 100 µM | LOX IMVI 31.8 µM | MDA-MB-231 64.7 µM | MDA-N 21.5 µM | Malme-3M 18.8 µM | SF-539 > 100 µM | SK-OV-3 > 100 µM | SNB-75 9.48 µM | SW-620 21.6 µM | U-251 61.2 µM | UO-31 27 µM

COc1cc(-c2nnc3n2NC=C(C(=O)O)S3)cc(OC)c1OC
inactive: ACHN > 100 µM | CCRF-CEM 29.7 µM | COLO 205 > 57.5 µM | HCC 2998 > 100 µM | HCT-116 > 55.1 µM | HL-60 > 61.4 µM | IGROV-1 > 100 µM | K562 > 43.1 µM | KM12 > 95.1 µM | LOX IMVI > 100 µM | Malme-3M > 100 µM | SF-539 > 42.8 µM | SK-OV-3 > 100 µM | SNB-75 > 100 µM | SW-620 > 39.5 µM | U-251 > 68.2 µM | UO-31 > 100 µM

C1=CC2CCC1CN2CCC1CNc2ccccc21 (centres undefined)
inactive: ACHN > 100 µM | CCRF-CEM > 100 µM | COLO 205 > 10 µM | HCC 2998 > 100 µM | HCT-116 > 100 µM | HL-60 > 100 µM | IGROV-1 > 100 µM | K562 > 100 µM | KM12 > 100 µM | LOX IMVI > 100 µM | Malme-3M > 100 µM | SF-539 > 100 µM | SK-OV-3 > 100 µM | SNB-75 > 100 µM | SW-620 > 100 µM | U-251 > 100 µM | UO-31 64.9 µM

CC1=CC(=O)C[C@]2(C)[C@@H](O)CC(C(C)CO)C[C@@H]12 (some centres undefined)
inactive: ACHN > 100 µM | COLO 205 > 100 µM | HCC 2998 > 100 µM | HCT-116 > 100 µM | HL-60 > 100 µM | IGROV-1 > 100 µM | KM12 > 100 µM | LOX IMVI > 100 µM | MDA-MB-231 > 100 µM | MDA-N > 100 µM | SF-539 > 100 µM | SK-OV-3 > 100 µM | SNB-75 > 100 µM | SW-620 > 100 µM | U-251 > 100 µM | UO-31 > 100 µM

CC(C)CCC[C@@H](C)[C@H]1CC[C@H]2[C@@H]3CC[C@H]4C[C@@H](CCC=C(c5cc(Cl)c(O)c(C(=O)O)c5)c5cc(Cl)c(O)c(C(=O)O)c5)CC[C@]4(C)[C@H]3CC[C@]12C
inactive: ACHN > 100 µM | CCRF-CEM > 100 µM | COLO 205 > 100 µM | HCC 2998 > 100 µM | HCT-116 > 100 µM | HL-60 > 100 µM | Hs-578T > 100 µM | IGROV-1 > 100 µM | K562 > 100 µM | KM12 > 100 µM | LOX IMVI > 100 µM | MDA-MB-231 > 100 µM | Malme-3M > 100 µM | SF-539 > 100 µM | SK-OV-3 > 100 µM | SNB-75 > 100 µM | SW-620 > 100 µM | U-251 > 100 µM | UO-31 > 100 µM

Reference: ChEMBL document CHEMBL1201862, “PubChem BioAssay data set” (2004)
